Experimental data taken from the NIST ThermoML archive (doi:10.1021/je800463k).

Test: mn = molality of the nth substance listed, in mol/kg
Conditions: 101 kPa, Liquid; for mass density: Pycnometric method; for electrical conductivity / speed of sound / viscosity: 313.15 K; for electrical conductivity: Frequency=0.001 MHz, Alternating current cell with electrodes; for speed of sound: Frequency=2 MHz

[Mg+2].[O-][Cl+3]([O-])([O-])[O-].[O-][Cl+3]([O-])([O-])[O-] [magnesium perchlorate] + CO
Conditions | mass density [kg/m3]
311.05 K, m1 = 0.0542 | 782.22
311.05 K, m1 = 0.0925 | 787.88
311.15 K, m1 = 0.6444 | 859.02
311.4 K, m1 = 0.4313 | 831.61
311.45 K, m1 = 1.059 | 911.67
311.55 K, m1 = 1.395 | 949.18
311.75 K, m1 = 0.1673 | 796.89
311.75 K, m1 = 2 | 999.04
312.55 K, m1 = 0.2872 | 811.13
312.6 K, m1 = 0.3228 | 815.21
313.25 K, m1 = 0.4313 | 829.89
313.25 K, m1 = 1.717 | 972.12
313.35 K, m1 = 0.1673 | 795.24
313.6 K, m1 = 0.0542 | 779.81
313.75 K, m1 = 1.395 | 947.21
314.05 K, m1 = 0.6444 | 856.37
314.15 K, m1 = 2 | 996.96
314.65 K, m1 = 1.059 | 908.74
315.1 K, m1 = 0.2872 | 808.66
315.2 K, m1 = 0.3228 | 812.71
315.8 K, m1 = 0.1673 | 792.81
315.85 K, m1 = 0.6444 | 854.66
315.9 K, m1 = 1.395 | 945.34
316 K, m1 = 0.4313 | 827.39
316.1 K, m1 = 0.0542 | 777.42
316.75 K, m1 = 1.717 | 969.14
317.85 K, m1 = 1.059 | 906.01
317.9 K, m1 = 2 | 993.97
318.5 K, m1 = 0.0542 | 774.98
318.5 K, m1 = 0.6444 | 851.96
318.65 K, m1 = 0.4313 | 824.78
319 K, m1 = 1.717 | 967.11
319.3 K, m1 = 1.395 | 942.34
320.05 K, m1 = 0.0542 | 773.35
320.15 K, m1 = 2 | 991.84
320.2 K, m1 = 0.6444 | 850.2
320.65 K, m1 = 1.059 | 903.14
321.15 K, m1 = 0.4313 | 822.18
322.3 K, m1 = 2 | 989.79
322.35 K, m1 = 1.717 | 964.07
322.45 K, m1 = 1.059 | 901.27
322.5 K, m1 = 1.395 | 939.42

Conditions | electrical conductivity [S/m] | speed of sound [m/s] | viscosity [mPa·s]
m1 = 0.0542 | 0.4141 | 1062.7 | 0.4735
m1 = 0.078 | 0.6138 | 1069.7 | –
m1 = 0.0925 | 0.6801 | 1072.7 | 0.4938
m1 = 0.1673 | 1.04 | 1082.2 | 0.5284
m1 = 0.2872 | 1.549 | 1098.9 | 0.5874
m1 = 0.3228 | 1.691 | 1102.5 | 0.6082
m1 = 0.4313 | 2.119 | 1115.5 | 0.6824
m1 = 0.6444 | 2.844 | 1141.6 | 0.7966
m1 = 1.059 | 3.813 | 1185.5 | 1.119
m1 = 1.395 | 4.297 | 1224.6 | 1.445
m1 = 1.717 | 4.592 | 1249.9 | 1.656
m1 = 2 | 4.75 | 1273.8 | 1.945
